Measured values published in patent US20210108199A1, “Treatment for aggressive cancers by targeting C9ORF72” (The Trustees of Columbia University in the City of New York, priority 2017, published 2021).

Experiments:
U87 cells [1] = assay: Mitochondrial imaging (MitoTracker) and MiNA quantitation; format: cell-based
Protocol: Mitchondria imaging in U87 cell was performed with MitoTracker™ Red CMXRos (ThermoFisher™, M7512) according to the manufacturer's protocol. Cells then were imaged as described herein.
Quantitation was performed using a publicly available macro MiNA for ImageJ™ as described.
The vacuoles were studied to investigate whether they are swollen mitochondria, because several reports observed vacuolated mitochondria in ALS patients and mice models that resemble the phenotype seen here. A fluorescent mitochondrial dye was used to visualize mitochondria upon C9 KD. […] See FIG. 5A and FIG. 5B, which show an IF image of U87 cells treated as in Example 1 and stained with MitoTracker (red) and nuclei stained with DAPI (blue).
To obtain the data seen in FIG. 6, the stained mitochondria from FIG. 5 were IF stained and analyzed using MiNA software for ImageJ™.

U87 cells [2] = assay: Vacuole quantitation in phase contrast images after C9 KD; format: cell-based; details: 3 days, vs siCtrl
Protocol: For siRNA knockdown experiments, siRNAs targeting C9 mRNA were designed with the Whitehead website (sirna.wi.mit.edu) and with RNAxs webserver (rna.tbi.univie.ac.at/cgi-bin/RNAxs). All siRNAs were obtained from GenePharma™. Lipofectamine RNAiMAX (Thermo Scientific™) was used as the transfection reagent for all siRNA experiments (according to the manufacturer's instructions). siRNA concentration was 40 nM per 60 mm plate. After 6 hours, media was changed and cells were treated again with siRNA after 48 hours. For RNA and protein analysis, cells were harvested after 48 hours following the second treatment. All KD experiments were performed in three biological replicates. The siRNA sequences were as follows: […] (SEQ ID NO:631; sense) and […] (SEQ ID NO:632; antisense); and GCACAUAUGGACUAUCAAUtt (SEQ ID NO:633; sense) and AUUGAUAGUCCAUAUGUGCtg (SEQ ID NO:634; antisense). The lower case letters in the sequence indicate location where optional modifications can be placed to enhance stability of the RNA.
The vacuoles were examined in order to reveal the mechanism by which C9 protein levels contribute to vacuole initiation. […] The number of vacuoles per cell were counted using imageJ™ from 3 biological replicates and a total of about 50 cells were quantitated, each dot representing a measurement of vacuoles per one cell FIG. 2A). […] Statistical significance was assessed by two tailed t-test. […]

U2OS cells = assay: Western blot of U2OS cells after C9 KD; format: cell-based, human
Protocol: For Western blot analysis, cells were lysed with lysis buffer (20 mM sodium phosphate (pH 7.0), 250 mM NaCl, 30 mM sodium pyrophosphate, 0.1% Nonidet™ P-40, 5 mM EDTA, 10 mM NaF, 0.1 mM Na3VO4, and 1 mM PMSF) supplemented with complete protease inhibitors (Roche™) and homogenized by passage through a 28 gauge needle. Protein concentration was measured with a Bio-Rad™ protein assay dye reagent and results were read using a spectrophotometer (BiophotometerPlus™ by Eppendorf™). Protein extracts were resolved by SDS PAGE on gradient (Thermo Fisher™) or 12% gels. Proteins were then electrotransferred at 350 mA for 80 minutes onto a PVDF membrane (Immobilon-P PVDF). Membranes were blocked with PBST with 5% milk and 1% BSA for 30 minutes. Quantitation of blots was performed Image Studio Lite software (LI-COR Biosciences™).
See FIG. 28, a WB of U2OS cells treated with control and C9 siRNA and probed for PARP1, p-p53 (s15), p53, p-ERK, p21, p-H2AX, using actin as a loading control.

p53 null U87 cells = assay: qRT-PCR in p53 null U87 KO #4 cells; format: cell-based
Protocol: For most RNA experiments, RNA was isolated from cells using the Qiagen™ RNeasy minikit. Complementary DNA was generated using the Qiagen™ Quantitect™ reverse transcription kit with 0.5 μg of input RNA as measured with a NanoDrop spectrophotometer (Thermo Scientific™). Real-time PCR was carried out on an ABI StepOne Plus™ machine using power SYBR Green dye (Thermo Scientific™). Transcript levels were assayed in triplicate and normalized to RPL32 and HPS90 mRNAs. Relative changes in cDNA levels were calculated using the comparative Ct method (ΔΔCT method). All RT-qPCR primers were designed with Primer3Plus™ or retrieved from Primerbank™. Primer sequences are listed here, including in Table 3. All primers were purchased from Life Technologies™. H. Generation of p53 Knock Out U87 Cell Lines by CRISPR
See FIG. 32, which presents RT-qPCR analysis of C9ORF72, CDKN1A (p21), PUMA, MDM2 and PARP1 mRNA levels in U87 KO #4 cells treated with control (siCtrl) and C9 (siC9; SEQ ID NO:631) siRNA. These experiments were performed in three biological replicates (n=3) and error bars represent S.E.M. Statistical significance was assessed by unpaired t-test: NS P>0.05, *P≤0.05, **P≤0.01, ***P≤0.001 ****P≤0.0001.

HeLa cells = assay: Mitochondrial live imaging in HeLa cells; format: cell-based; details: vs control
Protocol: Mitochondrial accumulation then was investigated in other cell lines. C9 KD was performed in HeLa cells, followed by a fluorescent mitochondrial dye for live imaging. […] To study the mitochondrial dysfunction phenotype upon C9 KD in a non-cancer cell line, C9 was knocked down in rat-derived cortical neurons in combination with a mitochondrial stain.

## siC9: siRNA targeting C9 mRNA: UUAAUGAAACAAUAAUCACUC (SEQ ID NO:631; sense) and GUGAUUAUUGUUUCAUUAAUC (SEQ ID NO:632; antisense) (listed as RNA, chemistry not given here)
U87 cells [1]; MiNA
  total amount of individual and networked mitochondria staining: increased
U87 cells [1]; MitoTracker
  mitochondrial dye staining of vacuoles: did not stain red
U87 cells [1]; vs control
  mitochondrial network organization: significant mitochondrial network disorganization
U87 cells [2]
  size of vacuoles: significant increase
  total vacuoles per cell: significant increase
U2OS cells
  CDKN1A/p21 protein levels: increase in CDKN1A/p21 protein levels
  PARP1 level: PARP1 downregulation
  p53 levels: increased p53 levels
  p-ERK: increases in p-ERK
  phosphorylated p53 (on s15): increases in phosphorylated p53
  γ-H2AX: increases
p53 null U87 cells; p53 null U87 KO #4 cells
  PUMA and MDM2 mRNA: lower levels
  p21 mRNA: did not result in a significant change
p53 null U87 cells; p53 null U87 cells
  PARP1 mRNA: repression was also observed
HeLa cells
  mitochondrial network organization: mitochondrial network disorganization
